For 20 compounds, Km results are on record in article PMC3382598, “Functional Metagenomics Unveils a Multifunctional Glycosyl Hydrolase from the Family 43 Catalysing the Breakdown of Plant Polymers in the Calf Rumen” (PLoS ONE, 2012).

Each structure is given as a SMILES string.

The test system of one experiment is T1, R_09-02.
T1 construct: recombinant in E. coli, His6-tag purification; tetramer approx. 200 kDa; second CDS of 3264 bp r_09 insert; W82, H301, R327 conserved residues; N-terminal GH43 domain plus C-terminal beta-sandwich (CBM6-like)
Nature of the experiment: p-nitrophenol release at […] nm; Michaelis-Menten fit. To be noted: pH 6.0 (20 mM sodium acetate), 34°C; read-out: K m (mM)^1. Type of experiment: biochemical.
Regarding `O=[N+]([O-])c1ccc(O[C@@H]2OC[C@H](O)[C@H](O)[C@H]2O)cc1` [pNPαAp], the Km came out at 6.98 ± 0.79 mM.
Same read-out and setting: the value for `O=[N+]([O-])c1ccc(O[C@H]2O[C@H](CO)[C@@H](O[C@H]3O[C@H](CO)[C@@H](O)[C@H](O)[C@H]3O)[C@H](O)[C@H]2O)cc1` [pNPαMal] was 9.74 ± 0.41 mM; that for `O=[N+]([O-])c1ccc(O[C@@H]2OC[C@@H](O)[C@H](O)[C@H]2O)cc1` [pNPβX] was 4.4 ± 0.76 mM; that for `O=[N+]([O-])c1ccc(O[C@@H]2O[C@H](CO)[C@H](O)[C@H](O)[C@H]2O)cc1` [pNPβGal] was 0.37 ± 0.12 mM.
Still for that read-out and setting: as for `O=[N+]([O-])c1ccc(O[C@@H]2O[C@@H](CO)[C@H](O)[C@H]2O)cc1` [pNPαAf], the figure is 0.57 ± 0.15 mM; as for `O=[N+]([O-])c1ccc(O[C@H]2O[C@H](CO)[C@@H](O)[C@H](O)[C@H]2O)cc1` [pNPαG], 4.84 ± 1.27 mM.

The next experiment has as its system T1, R_09-02. Description: released xylose, D-xylose assay kit; Michaelis-Menten fit. It counts as biochemical. The note with it: pH 6.0 (20 mM sodium acetate), 34°C; read-out: K m (mM)^1. An excerpt: released xylose, D-xylose assay kit; Michaelis-Menten fit on R_09-02
As to `OC1[C@H](O)CO[C@@H](O[C@@H]2CO[C@@H](O[C@@H]3CO[C@@H](O[C@@H]4CO[C@@H](O[C@@H]5COC(O)[C@H](O)[C@H]5O)[C@H](O)C4O)[C@H](O)C3O)[C@H](O)C2O)[C@@H]1O` (stereo partly drawn) [1,4-β-Xylopentaose], the Km was 1.58 ± 0.19 mM.
The same measure, in the same setting: as for `OC1OC[C@@H](O[C@@H]2OC[C@@H](O[C@@H]3OC[C@@H](O)[C@H](O)[C@H]3O)[C@H](O)[C@H]2O)[C@H](O)[C@H]1O` (stereo partly drawn) [1,4-β-Xylotriose], the figure is 0.29 ± 0.02 mM.
On the same count and under the same terms, as for `OC1OC[C@@H](O[C@@H]2OC[C@@H](O[C@@H]3OC[C@@H](O[C@@H]4OC[C@@H](O)[C@H](O)[C@H]4O)[C@H](O)[C@H]3O)[C@H](O)[C@H]2O)[C@H](O)[C@H]1O` (stereo partly drawn) [1,4-β-Xylotetraose], the figure is 0.33 ± 0.07 mM.
In the case of `OC1OC[C@@H](O[C@@H]2OC[C@@H](O)[C@H](O)[C@H]2O)[C@H](O)[C@H]1O` (stereo partly drawn) [1,4-β-Xylobiose], the Km worked out at 0.012 ± 0.002 mM.

The next experiment concerns T1, R_09-02. Description: released arabinose, lactose/galactose (Rapid) assay kit; Michaelis-Menten fit. The note with it: pH 6.0 (20 mM sodium acetate), 34°C; read-out: K m (mM)^1. Type of experiment: biochemical. From the text: released arabinose, lactose/galactose (Rapid) assay kit; Michaelis-Menten fit on R_09-02
Turning to `OC[C@@H]1O[C@@H](OC[C@@H]2OC(O)[C@H](O)[C@H]2O)[C@H](O)[C@H]1O` (stereo partly drawn) [1,5-α-L-Arabinobiose], the Km was 0.027 ± 0.01 mM.
On the same count and under the same terms, the value for `OC[C@@H]1O[C@@H](OC[C@@H]2O[C@@H](OC[C@@H]3OC(O)[C@H](O)[C@H]3O)[C@H](O)[C@H]2O)[C@H](O)[C@H]1O` (stereo partly drawn) [1,5-α-L-Arabinotriose] was 0.1 ± 0.05 mM.
On the same count and under the same terms, the value for `OC[C@@H]1O[C@@H](OC[C@@H]2O[C@@H](OC[C@@H]3O[C@@H](OC[C@@H]4OC(O)[C@H](O)[C@H]4O)[C@H](O)[C@H]3O)[C@H](O)[C@H]2O)[C@H](O)[C@H]1O` (stereo partly drawn) [1,5-α-L-Arabinotetraose] was 4.23 ± 0.74 mM.

A further experiment deals with T1, R_09-02. Nature of the experiment: released glucose, glucose oxidase kit; Michaelis-Menten fit. It counts as biochemical. To be noted: pH 6.0 (20 mM sodium acetate), 34°C; read-out: K m (mM)^1. An excerpt: released glucose, glucose oxidase kit; Michaelis-Menten fit on R_09-02
As to `OC[C@H]1O[C@H](O[C@H]2[C@H](O)[C@@H](O)C(O)O[C@@H]2CO)[C@H](O)[C@@H](O)[C@@H]1O` (some centres unmarked) [Maltose], the Km turned out to be 2.57 ± 0.19 mM.
Consider `OC[C@H]1O[C@H](O[C@H]2[C@H](O)[C@@H](O)[C@@H](O[C@H]3[C@H](O)[C@@H](O)[C@@H](O[C@H]4[C@H](O)[C@@H](O)[C@@H](O[C@H]5[C@H](O)[C@@H](O)C(O)O[C@@H]5CO)O[C@@H]4CO)O[C@@H]3CO)O[C@@H]2CO)[C@H](O)[C@@H](O)[C@@H]1O` (some centres unmarked) [Maltopentaose], for which the Km is 1.64 ± 0.21 mM.
On the same count and under the same terms, the value for `OC[C@H]1O[C@@H](O[C@H]2[C@H](O)[C@@H](O)C(O)O[C@@H]2CO)[C@H](O)[C@@H](O)[C@H]1O` (some centres unmarked) [Lactose] was 0.05 ± 0.0039 mM; that for `OC[C@H]1O[C@H](O[C@H]2[C@H](O)[C@@H](O)[C@@H](O[C@H]3[C@H](O)[C@@H](O)C(O)O[C@@H]3CO)O[C@@H]2CO)[C@H](O)[C@@H](O)[C@@H]1O` (some centres unmarked) [Maltotriose] was 0.44 ± 0.13 mM; that for `OC[C@H]1O[C@H](O[C@H]2[C@H](O)[C@@H](O)[C@@H](O[C@H]3[C@H](O)[C@@H](O)[C@@H](O[C@H]4[C@H](O)[C@@H](O)C(O)O[C@@H]4CO)O[C@@H]3CO)O[C@@H]2CO)[C@H](O)[C@@H](O)[C@@H]1O` (some centres unmarked) [Maltotetraose] was 0.53 ± 0.17 mM.

In the next experiment the test system is T1, R_09-02. Description: oligosaccharide hydrolysis, released sugar assay; Michaelis-Menten fit. Type of experiment: biochemical. To be noted: pH 6.0 (20 mM sodium acetate), 34°C; read-out: K m (mM)^1. An excerpt: oligosaccharide hydrolysis, released sugar assay; Michaelis-Menten fit on R_09-02
With `OC[C@H]1O[C@H](OC[C@H]2O[C@H](OC[C@H]3O[C@H](O[C@]4(CO)O[C@H](CO)[C@@H](O)[C@@H]4O)[C@H](O)[C@@H](O)[C@@H]3O)[C@H](O)[C@@H](O)[C@H]2O)[C@H](O)[C@@H](O)[C@H]1O` [Stachyose], the Km was 1.43 ± 0.84 mM.
Same read-out and setting: the value for `OC[C@H]1O[C@H](OC[C@H]2O[C@H](O[C@]3(CO)O[C@H](CO)[C@@H](O)[C@@H]3O)[C@H](O)[C@@H](O)[C@@H]2O)[C@H](O)[C@@H](O)[C@H]1O` [Raffinose] was 0.035 ± 0.004 mM.
